Laboratory results taken from PubChem BioAssay (NCI).
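Test compounds were applied to cells in 96-well plates for 48 hours at 5 doses. TGI is the concentration that stops growth completely.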

Assays:
Test in all cases: growth of human tumour cells (NCI), 48 h
OVCAR-3 ovarian = test system: OVCAR-3 ovarian
MCF7 breast = test system: MCF7 breast
A549 NSCLC = test system: A549 NSCLC
OVCAR-4 ovarian = test system: OVCAR-4 ovarian
MDA-MB-231 breast = test system: MDA-MB-231 breast
786-0 renal = test system: 786-0 renal
SF-268 CNS = test system: SF-268 CNS
CAKI-1 renal = test system: CAKI-1 renal
HCT-15 colon = test system: HCT-15 colon
OVCAR-8 ovarian = test system: OVCAR-8 ovarian
T-47D breast = test system: T-47D breast
OVCAR-5 ovarian = test system: OVCAR-5 ovarian
DU-145 prostate = test system: DU-145 prostate
MDA-N = test system: MDA-N
HOP-62 NSCLC = test system: HOP-62 NSCLC
M14 melanoma = test system: M14 melanoma
A498 renal = test system: A498 renal
U251 CNS = test system: U251 CNS
UACC-62 melanoma = test system: UACC-62 melanoma
COLO 205 colon = test system: COLO 205 colon
ACHN renal = test system: ACHN renal
TK-10 renal = test system: TK-10 renal
SK-MEL-2 melanoma = test system: SK-MEL-2 melanoma
BT-549 breast = test system: BT-549 breast
MOLT-4 leukemia = test system: MOLT-4 leukemia
HS 578T breast = test system: HS 578T breast
LOX IMVI melanoma = test system: LOX IMVI melanoma
UACC-257 melanoma = test system: UACC-257 melanoma
SN12C renal = test system: SN12C renal
SR leukemia = test system: SR leukemia
SK-OV-3 ovarian = test system: SK-OV-3 ovarian
SW-620 colon = test system: SW-620 colon
KM12 colon = test system: KM12 colon
NCI-H460 lung = test system: NCI-H460 lung
NCI/ADR-RES ovarian = test system: NCI/ADR-RES ovarian
SF-295 CNS = test system: SF-295 CNS
HCC-2998 colon = test system: HCC-2998 colon
RXF 393 renal = test system: RXF 393 renal
UO-31 renal = test system: UO-31 renal
SK-MEL-28 melanoma = test system: SK-MEL-28 melanoma
K-562 leukemia = test system: K-562 leukemia
NCI-H23 lung = test system: NCI-H23 lung
RPMI-8226 leukemia = test system: RPMI-8226 leukemia
SNB-19 CNS = test system: SNB-19 CNS
PC-3 prostate = test system: PC-3 prostate
MDA-MB-435 = test system: MDA-MB-435
SNB-75 CNS = test system: SNB-75 CNS
NCI-H226 lung = test system: NCI-H226 lung
HCT-116 colon = test system: HCT-116 colon
HOP-92 NSCLC = test system: HOP-92 NSCLC
NCI-H522 lung = test system: NCI-H522 lung
IGROV1 ovarian = test system: IGROV1 ovarian
HT29 colon = test system: HT29 colon
SK-MEL-5 melanoma = test system: SK-MEL-5 melanoma
CCRF-CEM leukemia = test system: CCRF-CEM leukemia
EKVX NSCLC = test system: EKVX NSCLC
HL-60(TB) leukemia = test system: HL-60(TB) leukemia
SF-539 CNS = test system: SF-539 CNS
MALME-3M melanoma = test system: MALME-3M melanoma

Measured: TGI

CCOC(=O)c1cc(=O)oc2c1N(C)c1ncccc1N2
not listed: HOP-92 NSCLC | NCI-H522 lung | IGROV1 ovarian | HT29 colon | SK-MEL-5 melanoma | CCRF-CEM leukemia | EKVX NSCLC | HL-60(TB) leukemia | SF-539 CNS | MALME-3M melanoma
> 100 µM: all other assays above

CC1=C(C(=O)NCC(C)O)CC(C(=O)NCC(C)O)=C(C)N1 (configuration not stated)
not listed: A498 renal | MALME-3M melanoma
> 100 µM: all other assays above

CCOC(=O)/C=C(\N=P(c1ccccc1)(c1ccccc1)c1ccccc1)C(F)(F)C(F)(F)C(F)(F)C(F)(F)C(F)(F)F
72.4 µM: A498 renal
not listed: OVCAR-8 ovarian | NCI-H226 lung | NCI-H522 lung | EKVX NSCLC
> 100 µM: all other assays above

CC12CC3(O)OC(O1)C1(COC(=O)c4ccccc4)C3CC21OC1OC(CO)C(O)C(O)C1O (configuration not stated)
not listed: K-562 leukemia | SNB-75 CNS
> 100 µM: all other assays above

CCOC(=O)C#Cc1ccc([N+](=O)[O-])cc1
32 µM: A498 renal
3.12 µM: DU-145 prostate
21.8 µM: HS 578T breast
4.42 µM: IGROV1 ovarian
2.83 µM: OVCAR-5 ovarian
7.78 µM: NCI-H226 lung
11.6 µM: SK-MEL-2 melanoma
11.9 µM: K-562 leukemia
23.3 µM: OVCAR-4 ovarian
2.77 µM: LOX IMVI melanoma
3.13 µM: OVCAR-3 ovarian
25.6 µM: SK-OV-3 ovarian | SF-295 CNS
29.2 µM: NCI-H460 lung
7.55 µM: NCI-H23 lung
27 µM: A549 NSCLC
4.33 µM: HCT-15 colon
10.5 µM: OVCAR-8 ovarian | MDA-N
3.81 µM: KM12 colon
2.94 µM: HT29 colon
3.15 µM: UO-31 renal
8.54 µM: PC-3 prostate
4.68 µM: RPMI-8226 leukemia
79.5 µM: NCI/ADR-RES ovarian
4.71 µM: EKVX NSCLC
5.34 µM: M14 melanoma
3.39 µM: SN12C renal
3.47 µM: HOP-92 NSCLC | CAKI-1 renal
6.69 µM: SF-539 CNS
5.27 µM: SR leukemia
27.4 µM: TK-10 renal
3.41 µM: 786-0 renal
7.43 µM: SW-620 colon
3.03 µM: HCT-116 colon
10.8 µM: UACC-257 melanoma | MDA-MB-435
4.1 µM: HL-60(TB) leukemia
4.76 µM: BT-549 breast
11.3 µM: HOP-62 NSCLC
8.62 µM: SF-268 CNS
9.63 µM: SK-MEL-5 melanoma
3.09 µM: NCI-H522 lung | COLO 205 colon
2.63 µM: RXF 393 renal
3 µM: U251 CNS
4.05 µM: T-47D breast | UACC-62 melanoma | CCRF-CEM leukemia
28.7 µM: HCC-2998 colon
4.64 µM: MDA-MB-231 breast
2.49 µM: MCF7 breast
7.88 µM: SNB-75 CNS
23.4 µM: SK-MEL-28 melanoma
10.2 µM: ACHN renal
5.22 µM: MOLT-4 leukemia
25.7 µM: SNB-19 CNS

CCOC(=O)C1(C(=O)OCC)CC(=O)[C@@]2(C1)OCC[C@H]1OC(=O)C[C@H]12
not listed: SK-OV-3 ovarian | RXF 393 renal | K-562 leukemia | NCI-H226 lung
> 100 µM: all other assays above

N#CC(N=Nc1ccccc1)c1nc2ccccc2o1 (configuration not stated)
72.4 µM: DU-145 prostate
46 µM: BT-549 breast
64 µM: NCI/ADR-RES ovarian
43.9 µM: NCI-H23 lung
39 µM: HOP-62 NSCLC
79.4 µM: OVCAR-8 ovarian
42.9 µM: IGROV1 ovarian
70.5 µM: SK-MEL-2 melanoma
59.5 µM: U251 CNS
28.8 µM: SF-539 CNS
92.7 µM: OVCAR-3 ovarian
57.4 µM: MDA-MB-231 breast
39.9 µM: T-47D breast
46.7 µM: HOP-92 NSCLC
56.4 µM: ACHN renal
68 µM: SK-OV-3 ovarian
66.8 µM: HS 578T breast
45.5 µM: 786-0 renal
37.9 µM: OVCAR-4 ovarian
35.5 µM: SF-295 CNS
59.9 µM: SF-268 CNS
57.5 µM: HCT-116 colon
61.4 µM: RXF 393 renal
58.3 µM: TK-10 renal
68.7 µM: COLO 205 colon
not listed: LOX IMVI melanoma | SW-620 colon | SNB-75 CNS
> 100 µM: all other assays above
